Assay results reported in patent US12157730B2, “Heteroaryl derivative, method for producing same, and pharmaceutical composition comprising same as effective component” (VORONOI INC., priority 2019, dated 2024).

Biological target: T1, Ba/F3 cell EGFR Exon20 ins NPH (Homo sapiens, UniProt P00533, INS773NPH)
T1 construct: expressed in transfected cells; host or cells: Ba/F3
Assay: Ba/F3 cell proliferation suppression, EGFR Exon20 ins NPH
Assay type: cell-based
Settings: GI50 class; Ba/F3 cell line with NPH inserted at Exon20 of EGFR; 72 hours
How it was run: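 Cells (3000–5000/well) plated 24 h before compound, 12-point 3-fold dilutions at 0.3 nM to 50 um final; Ba/F3 lines grown with 5 ng/ml IL-3. Viability by CellTiter-Glo luminescence after 72 h, growth ratio vs control, GI50 from curves; triplicate.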

SMILES: C=CC(=O)Nc1cc(Nc2cc(N3OCC[C@@H]3c3ccc(F)cc3F)ncn2)c(OC)cc1N1CCC(N2CCC(N3CCN(C)CC3)CC2)CC1 [compound 477, N-(5-((6-((R)-3-(2,4-difluorophenyl)isoxazolidine-2-yl)pyrimidine-4-yl)amino)-4-methoxy-2-(4-(4-methylpiperazine-1-yl)-[1,4'-bipiperidine]-1'-yl)phenyl)acrylamide]
- Ba/F3 (NPH) Activity: A (GI50 < 50 nM)

SMILES: C=CC(=O)Nc1cc(Nc2cc(N3OCC[C@@H]3c3ccc(Cl)c(F)c3)ncn2)c(OC)cc1N1C[C@@H]2C[C@H]1CO2 [compound 862, N-(2-((1S,4S)-2-oxa-5-azabicyclo [2.2.1]heptane-5-yl)-5-((6-((R)-3-(4-chloro-3-fluorophenyl)isoxazolidine-2-yl)pyrimidine-4-yl)amino)-4-methoxyphenyl) acrylamide]
- Ba/F3 (NPH) Activity: A (GI50 < 50 nM)

SMILES: C=CC(=O)Nc1cc(Nc2cc(N3OCC[C@@H]3c3ccccc3)ncn2)c(OC)cc1N1CCC(N2CCN(C(C)=O)CC2)CC1 [Example 284, N-(2-(4-(4-acetylpiperazine-1-yl)piperidine-1-yl)-4-methoxy-5-((6-((R)-3-phenylisoxazolidine-2-yl)pyrimidine-4-yl)amino)phenyl) acrylamide]
- Ba/F3 (NPH) Activity: A (GI50 < 50 nM)

SMILES: C=CC(=O)Nc1cc(Nc2cc(N3OCC[C@@H]3c3ccc(C)nc3)ncn2)c(OC)cc1N1CCN(C2CCN(C)CC2)CC1 [Example 48, N-(4-methoxy-2-(4-(1-methylpiperidine-4-yl)piperazine-1-yl)-5-((6-((R)-3-(6-methylpyridine-3-yl)isoxazolidine-2-yl)pyrimidine-4-yl)amino)phenyl) acrylamide]
- Ba/F3 (NPH) Activity: B (50 nM ≤ GI50 < 500 nM)

SMILES: C=CC(=O)Nc1cc(Nc2cc(N3OCC[C@@H]3c3cc(F)cc(F)c3)ncn2)c(OC)cc1N1CCC(N2CCN(C)[C@@H](C)C2)CC1 [compound 760, N-(5-((6-((R)-3-(3,5-difluorophenyl)isoxazolidine-2yl)pyrimidine-4-yl)amino)-2-(4-((S)-3,4-dimethylpiperazine-1-yl)piperidine-1-yl)-4-methoxyphenyl) acrylamide]
- Ba/F3 (NPH) Activity: A (GI50 < 50 nM)

SMILES: C=CC(=O)Nc1cc(Nc2cc(N3OCC[C@@H]3Cc3ccccc3)ncn2)c(OC)cc1N1CCN(CC)CC1 [compound 946, N-(5-((6-((S)-3-benzylisoxazolidine-2-yl)pyrimidine-4-yl)amino)-2-(4-ethylpiperazine-1-yl)-4-methoxyphenyl) acrylamide]
- Ba/F3 (NPH) Activity: A (GI50 < 50 nM)

SMILES: C=CC(=O)Nc1cc(Nc2cc(N3OCC[C@@H]3c3cccc(C)c3F)ncn2)c(OC)cc1N1CCC(N2CCN(C(C)C)CC2)CC1 [compound 911, N-(5-((6-((R)-3-(2-fluoro-3-methylphenyl)isoxazolidine-2-yl)pyrimidine-4-yl)amino)-2-(4-(4-isopropylpiperazine-1-yl)piperidine-1-yl)-4-methoxyphenyl) acrylamide]
- Ba/F3 (NPH) Activity: A (GI50 < 50 nM)

SMILES: C=CC(=O)Nc1cc(Nc2cc(N3OCC[C@@H]3c3cc(F)cc(F)c3)ncn2)c(OC)cc1N1CCC(N2C[C@@H]3C[C@H]2CN3CC)CC1 [Example 264, N-(5-((6-((R)-3-(3,5-difluorophenyl)isoxazolidine-2-yl)pyrimidine-4-yl)amino)-2-(4-((1S,4S)-5-ethyl-2,5-diazabicyclo[2.2.1]heptane-2-yl)piperidine-1-yl)-4-methoxyphenyl) acrylamide]
- Ba/F3 (NPH) Activity: A (GI50 < 50 nM)

SMILES: C=CC(=O)Nc1cc(Nc2cc(N3OCC[C@@H]3c3cccc(F)c3F)ncn2)c(OC)cc1N1CC[C@@H](N(C)C)C1 [compound 927, N-(5-((6-((R)-3-(2,3-difluorophenyl)isoxazolidine-2-yl)pyrimidine-4-yl)amino)-2-((R)-3-(dimethylamino)pyrolidine-1-yl)-4-methoxyphenyl) acrylamide]
- Ba/F3 (NPH) Activity: A (GI50 < 50 nM)

SMILES: C=CC(=O)Nc1cc(Nc2cc(N3OCC[C@@H]3c3cccc4ccccc34)ncn2)c(OC)cc1N1CCC(N2CCN(C)CC2)CC1 [compound 482, N-(4-methoxy-2-(4-(4-methylpiperazine-1-yl)piperidine-1-yl)-5-((6-((R)-3-(naphthalene-1-yl)isoxazolidine-2-yl)pyrimidine-4-yl)amino)phenyl)acrylamide]
- Ba/F3 (NPH) Activity: A (GI50 < 50 nM)

SMILES: C=CC(=O)Nc1cc(Nc2cc(N3OCC[C@@H]3c3cc(F)cc(F)c3)ncn2)c(OC)cc1N1CCC(N2CCN(C)CC2=O)CC1 [compound 722, N-(5-((6-((R)-3-(3,5-difluorophenyl)isoxazolidine-2-yl)pyrimidine-4-yl)amino)-4-methoxy-2-(4-(4-methyl-2-oxopiperazine-1-yl)piperidine-1-yl)phenyl)acrylamide]
- Ba/F3 (NPH) Activity: B (50 nM ≤ GI50 < 500 nM)

SMILES: C=CC(=O)Nc1cc(Nc2cc(N3OCC[C@@H]3Cc3cccc(N(C)C)c3)ncn2)c(OC)cc1N1CCC(N2CCN(C3CC3)[C@@H](C)C2)CC1 [compound 1045, N-(2-(4-((S)-4-cyclopropyl-3-methylpiperazine-1-yl)piperidine-1-yl)-5-((6-((S)-3-(3-(dimethylamino)benzyl)isoxazolidine-2-yl)pyrimidine-4-yl)amino)-4-methoxyphenyl) acrylamide]
- Ba/F3 (NPH) Activity: B (50 nM ≤ GI50 < 500 nM)

SMILES: C=CC(=O)Nc1cc(Nc2cc(N3OCC[C@@H]3c3cccc(F)c3Cl)ncn2)c(OC)cc1N1CCC(N2CCN(C)CC2)CC1 [compound 560, N-(5-((6-((R)-3-(2-chloro-3-fluorophenyl)isoxazolidine-2-yl)pyrimidine-4-yl)amino)-4-methoxy-2-(4-(4-methylpiperazine-1-yl)piperidine-1-yl)phenyl) acrylamide]
- Ba/F3 (NPH) Activity: A (GI50 < 50 nM)

SMILES: C=CC(=O)Nc1cc(Nc2cc(N3OCC[C@@H]3c3cccc(OC)c3)ncn2)c(OC)cc1N1CCC(N2CCN(C3CC3)CC2)CC1 [Example 65, N-(2-(4-(4-cyclopropylpiperazine-1-yl)piperidine-1-yl)-4-methoxy-5-((6-((R)-3-(3-methoxyphenyl)isoxazolidine-2-yl)pyrimidine-4-yl)amino)phenyl) acrylamide]
- Ba/F3 (NPH) Activity: A (GI50 < 50 nM)

SMILES: C=CC(=O)Nc1cc(Nc2cc(N3OCC[C@@H]3c3cc(F)cc(F)c3)ncn2)c(OC)cc1N1CCC(N2C[C@H](C)O[C@@H](C)C2)CC1 [compound 752, N-(5-((6-((R)-3-(3,5-difluorophenyl)isoxazolidine-2-yl)pyrimidine-4-yl)amino)-2-(4-((2S,6S)-2,6-dimethylmorpholino)piperidine-1-yl)-4-methoxyphenyl) acrylamide]
- Ba/F3 (NPH) Activity: A (GI50 < 50 nM)

SMILES: C=CC(=O)Nc1cc(Nc2cc(N3OCC[C@@H]3c3ccc(Cl)cc3F)ncn2)c(OC)cc1N(C)CCN(C)C [compound 371, N-(5-((6-((R)-3-(4-chloro-2-fluorophenyl)isoxazolidine-2-yl)pyrimidine-4-yl)amino)-2-((2-(dimethylamino)ethyl)(methyl)amino)-4-methoxyphenyl) acrylamide]
- Ba/F3 (NPH) Activity: A (GI50 < 50 nM)

SMILES: C=CC(=O)Nc1cc(Nc2cc(N3OCC[C@@H]3c3ccc(F)c(Cl)c3)ncn2)c(OC)cc1N1CCC(N2CCN(C)[C@H](C)C2)CC1 [compound 901, N-(5-((6-((R)-3-(3-chloro-4-fluorophenyl)isoxazolidine-2-yl)pyrimidine-4-yl)amino)-2-(4-((R)-3,4-dimethylpiperazine-1-yl)piperidine-1-yl)-4-methoxyphenyl) acrylamide]
- Ba/F3 (NPH) Activity: A (GI50 < 50 nM)

SMILES: C=CC(=O)Nc1cc(Nc2cc(N3OCC[C@@H]3c3ccc(Cl)cc3)ncn2)c(OC)cc1N1CCN(CC)CC1 [Example 255, N-(5-((6-((R)-3-(4-chlorophenyl)isoxazolidine-2-yl)pyrimidine-4-yl)amino)-2-(4-ethylpiperazine-1-yl)-4-methoxyphenyl) acrylamide]
- Ba/F3 (NPH) Activity: A (GI50 < 50 nM)

SMILES: C=CCN1CCN(C2CCN(c3cc(OC)c(Nc4cc(N5OCC[C@@H]5c5cc(F)cc(Cl)c5)ncn4)cc3NC(=O)C=C)CC2)CC1 [Example 214, N-(2-(4-(4-allylpiperazine-1-yl)piperidine-1-yl)-5-((6-((R)-3-(3-chloro-5-fluorophenyl)isoxazolidine-2-yl)pyrimidine-4-yl)amino)-4-methoxyphenyl) acrylamide]
- Ba/F3 (NPH) Activity: A (GI50 < 50 nM)

SMILES: C=CC(=O)Nc1cc(Nc2cc(N3OCC[C@@H]3c3ccccc3)ncn2)c(OC)cc1N1CCC(N2C[C@@H]3C[C@H]2CN3CC)CC1 [compound 737, N-(2-(4-((1S,4S)-5-ethyl-2,5-diazabicyclo [2.2.1]heptane-2-yl)piperidine-1-yl)-4-methoxy-5-((6-((R)-3-phenylisoxazolidine-2-yl)pyrimidine-4-yl)amino)phenyl) acrylamide]
- Ba/F3 (NPH) Activity: A (GI50 < 50 nM)

SMILES: C=CC(=O)Nc1cc(Nc2cc(N3OCC[C@@H]3c3ccc(Cl)cc3)ncn2)c(OC)cc1N1CCC(N2CCN(CC)CC2)CC1 [Example 254, N-(5-((6-((R)-3-(4-chlorophenyl)isoxazolidine-2-yl)pyrimidine-4-yl)amino)-2-(4-(4-ethylpiperazine-1-yl)piperidine-1-yl)-4-methoxyphenyl) acrylamide]
- Ba/F3 (NPH) Activity: A (GI50 < 50 nM)

SMILES: C=CC(=O)Nc1cc(Nc2cc(N3OCC[C@@H]3c3cccc(F)c3Cl)ncn2)c(OC)cc1N1CC[C@@H](N(C)C)C1 [compound 558, N-(5-((6-((R)-3-(2-chloro-3-fluorophenyl)isoxazolidine-2-yl)pyrimidine-4-yl)amino)-2-((R)-3-(dimethylamino)pyrolidine-1-yl)-4-methoxyphenyl) acrylamide]
- Ba/F3 (NPH) Activity: A (GI50 < 50 nM)

SMILES: C=CC(=O)Nc1cc(Nc2cc(N3OCC[C@@H]3c3cccc(F)c3)ncn2)c(OC)cc1N1CCC(N2CCN(C3CC3)CC2)CC1 [Example 64, N-(2-(4-(4-cyclopropylpiperazine-1-yl)piperidine-1-yl)-5-((6-((R)-3-(3-fluorophenyl)isoxazolidine-2-yl)pyrimidine-4-yl)amino)-4-methoxyphenyl) acrylamide]
- Ba/F3 (NPH) Activity: A (GI50 < 50 nM)
